The conditions of data set [1]: cited from earlier work.
In data set [2] the test system is isolated hairless mouse skin. The experiment in a line: Skin permeation rate, flow-through diffusion cells. The conditions noted are these: for Flux / Lag time: n = 3. The data set is classed as in vitro ADME. On the procedure:
Skin permeation rates of various zolmitriptan/enhancer formulations were determined using flow through diffusion cells. Permeation experiments were done on isolated hairless mouse skin. A system comprising a multi channel peristaltic pump, a fraction collector, a circulating water bath and flow-through diffusion cells was used. Each flow-through cell had two arms, which allowed the receiver cell medium pumped to a fraction collector. The diffusion cell temperature was maintained at 37° C. by circulating water through the outer part of jacketed receiver cell. The surface area of receiver cell opening as 2 cm^2, and its volume was 5.5 ml Skin was excised from hairless mouse that was sacrificed with diethyl ether. Subcutaneous fat was removed with scissors and scalpel. Each of the flow-through diffusion cell components was connected via silicone rubber tubing with an internal diameter of 0.015 inches. The receiver cell was filled with a pH 6 buffer solution and the media stirred by Teflon-coated magnetic bar. The transdermal device was placed on the stratum corneum and the excised skin was mounted onto each receiver cell. And O-ring and cell top was placed on the top of each skin. These components are then clamped. The amount of drug permeated across the skin was calculated from the cumulative release. The samples were collected every 4 hours for 24 hours and assayed by HPLC. This method was used to measure skin permeation rates referred to as transdermal flux or flux in the examples. Zolmitriptan was analyzed by an HPLC system (Shimadzu Scientific Instruments, MD), consisting of a UV detector (SPD-10A), reversed-phase C8 column, a pump (LC-10AD), and an automatic injector (SIL-10A). The method had been previously described (Vyas et. al., 2005). Briefly, the wavelength of the UV detector was 229 nm, the column temperature was maintained at 30° C., the flow rate was 1 ml/min and injection volume was 10 μl. The mobile phase used consisted of acetonitrile/phosphate buffer pH 7.5 (15/85).

Data set [3] can be described thus: Solubility of zolmitriptan in pressure sensitive adhesive matrixes. The data set is classed as physicochemical. The conditions noted are these: silicone and PIB adhesive matrixes.
Data set [4] can be described thus: Physical observation of patches by eye or microscope. In kind it is physicochemical. From the text: Permeation is increased for a given concentration of triptan if the triptan is in solution in the matrix. The patches of Table 9 were stored at the room temperature for the designated period of time then observed by eye or/and a microscope. No crystals or white spots have been observed, and the patches are clear. […] This function has not previously been known for this class of compounds.

For data set [5] the following is noted: cited from earlier work. This is another data set of the same source.
Where [6] appears, read: acrylic adhesive matrix without functional group, zolmitriptan 4 wt%.
The mark [7] stands for this setting: adhesive matrix 87-2287 (hydroxyl functional group), zolmitriptan 4 wt%.
Where [8] appears, read: adhesive matrix 87-2510 (hydroxyl functional group), zolmitriptan 4 wt%.
Where [9] appears, read: adhesive matrix 87-2516 (hydroxyl functional group), zolmitriptan 4 wt%.
The mark [10] stands for this setting: drug concentration 4 wt% in 87-2510 matrix.
Setting [11] is: drug concentration 5 wt% in 87-2510 matrix.
[12] abbreviates: drug concentration 7.5 wt% in 87-2510 matrix.
[13] abbreviates: drug concentration 10 wt% in 87-2510 matrix.
The mark [14] stands for this setting: matrix thickness 25 μm, 4% drug loading, 87-2510.
[15] abbreviates: matrix thickness 60 μm, 4% drug loading, 87-2510.
Setting [16] is: matrix thickness 95 μm, 4% drug loading, 87-2510.
Where [17] appears, read: matrix thickness 130 μm, 4% drug loading, 87-2510.
[18] abbreviates: matrix thickness 165 μm, 4% drug loading, 87-2510.

The values below come from patent US20100209484A1, “Transdermal Triptan Delivery System” (priority 2009, published 2010).

Where two headings read alike, the source gives them in different places.

Take `CNS(=O)(=O)CCc1ccc2[nH]cc(C3CCN(C)CC3)c2c1` [Naratriptan]: the “bioavailable amount after oral ingestion” value in data set [1] (in females) is on record as 74%; in data set [1] (in males), 63%.

On to `CN(C)CCc1c[nH]c2ccc(CS(=O)(=O)N3CCCC3)cc12` [Almotriptan], for which the “bioavailable amount after oral ingestion” value in data set [1] was 69%.

For the compound `CNS(=O)(=O)Cc1ccc2[nH]cc(CCN(C)C)c2c1` [Sumatriptan], in data set [1], the “bioavailable amount after oral ingestion” value is 14%.

`CN1CCC[C@@H]1Cc1c[nH]c2ccc(CCS(=O)(=O)c3ccccc3)cc12` [Eletriptan]: in data set [1], the “bioavailable amount after oral ingestion” value is listed as 50%.

By pKa is commonly meant the negative logarithm of the acid dissociation constant. Consider `CN(C)CCc1c[nH]c2ccc(C[C@H]3COC(=O)N3)cc12` [Zolmitriptan], for which the Flux in data set [2] (setting [6]) came out at 6.16 μg/cm^2hr; in data set [2] (setting [7]), 6.5 μg/cm^2hr; in data set [2] (setting [8]), 15.6 μg/cm^2hr; in data set [2] (setting [9]), 14.4 μg/cm^2hr; in data set [2] (adhesive matrix with carboxyl functional group, zolmitriptan 4 wt%), 0.22 μg/cm^2hr; in data set [2] (setting [10]) it was 13.5 μg/cm^2hr. In addition, the Flux worked out at 14.8 μg/cm^2hr in data set [2] (setting [11]); 15.8 μg/cm^2hr in data set [2] (setting [12]); 18.3 μg/cm^2hr in data set [2] (setting [13]); 1.2 μg/cm^2hr in data set [2] (setting [14]); 6.1 μg/cm^2hr in data set [2] (setting [15]); 11.7 μg/cm^2hr in data set [2] (setting [16]). Besides, the Flux worked out at 14.1 μg/cm^2hr in data set [2] (setting [17]) and 13.0 μg/cm^2hr in data set [2] (setting [18]). Besides, the Lag time in data set [2] (setting [6]) turned out to be 10.7 h; in data set [2] (setting [7]) it was 13.0 h; in data set [2] (setting [8]), 9.3 h; in data set [2] (setting [9]), 11.8 h; in data set [2] (setting [10]), 8.2 h; in data set [2] (setting [11]), 8.5 h. In addition, the Lag time was determined as 8.4 h in data set [2] (setting [12]); 9.0 h in data set [2] (setting [13]); 9.0 h in data set [2] (setting [14]); 5.5 h in data set [2] (setting [15]); 5.2 h in data set [2] (setting [16]); 7.0 h in data set [2] (setting [17]). For the same compound, the Lag time in data set [2] (setting [18]) stood at 7.4 h. In data set [2] (drug loading in 87-2510 matrix increased from 4% to 10%), the “change of flux with drug loading” value is “did not change significantly”. Further, in data set [3], the “solubility in adhesive matrix” value is “inadequate”. The patch appearance entry in data set [4] (4% drug load in 87-2510 matrix) is “clear”; in data set [4] (5% or more drug load in 87-2510 matrix), “milky”. Also, the “bioavailable amount after oral ingestion” value in data set [1] is 40%. Further, in data set [5], the pKa was 9.64. Moreover, the solubility entry in data set [5] (in water and methanol) is given as “soluble”.

Turning to `CN[C@@H]1CCc2[nH]c3ccc(C(N)=O)cc3c2C1` [Frovatriptan], the “bioavailable amount after oral ingestion” value in data set [1] (in females) was 30%; in data set [1] (in males), 24%.

On to `CN(C)CCc1c[nH]c2ccc(Cn3cncn3)cc12` [Rizatriptan], for which, in data set [1], the “bioavailable amount after oral ingestion” value is recorded as 47%.
